The values that follow come from patent US6797721B2, “Phorboxazole derivatives for treating cancer” (Parker Hughes Institute, priority 1999, dated 2004).

The test system of one experiment is DU-145 (prostate cancer). As to the kind of experiment: MTT cytotoxicity assay, DU-145. Particulars: Homo sapiens. Format: cell-based. The procedure: (§1) The cytotoxicity assay of synthetic Phorboxazole A and various derivative compounds against human tumor cells was performed using the MTT (3-[4,5-dimethylthiazol-2-yl]-2,5-diphenyl tetrazolium bromide) assay (Boehringer Mannheim Corp., Indianapolis, Ind.). Briefly, exponentially growing brain tumor cells were seeded into a 96-well plate at a density of 2.5×10^4 cells/well and incubated for 36 hours at 37° C. prior to drug exposure. On the day of treatment, culture medium was carefully aspirated from the wells and replaced with fresh medium containing the various phorboxazole A derivative compounds as well as the tyrosine kinase inhibitory isoflavone genistein (GEN) at concentrations ranging from 0.1 to 250 μM. Triplicate wells were used for each treatment.
The cells were incubated with the various compounds for 24-36 hours at 37° C. in a humidified 5% CO2 atmosphere. To each well, 10 μl of MTT (0.5 mg/ml final concentration) was added and the plates were incubated at 37° C. for 4 hours to allow MTT to form formazan crystals by reacting with metabolically active cells. […] The absorbance of each well was measured in a microplate reader (Labsystems) at 540 nm and a reference wavelength of 690 nm. […] The percent survival was calculated using the formula: [formula]
The IC50 values were calculated by non-linear regression analysis. […]
A general note: Tetrazolium assays rely on reduction of a dye to a coloured formazan, in cell work by metabolically active cells.

For experiment [1], the system named is U373 human glioblastoma cells. As to the kind of experiment: Clonogenic assay, U373. In kind it is cell-based. Particulars: 7 days. As to the method:
The growth-inhibiting activity of the synthetic Phorboxazole A and the synthesized derivatives was tested in clonogenic assays. Cancer cells were treated with 1 nM, 10 nM, and 100 nM doses of synthetic Phorboxazole A or derivatives of phorboxazole A. Treated cells included U373 human glioblastoma cells, NALM-6, human B-lineage acute lymphoblastic leukemia cells, and BT-20 human breast cancer cells. The cancer cells were resuspended in clonogenic medium consisting of alpha-MEM supplemented with 0.9% methylcellulose, 30% fetal bovine serum, and 50 μM 2-mercaptoethanol. Cells were plated in duplicate Petri dishes at 100,000 cells/mL/dish and cultured in a humidified 5% CO2 incubator for 7 days. Cancer cell colonies were enumerated on a grid using an inverted phase microscope of high optical resolution. Results were expressed as % inhibition of clonogenic cells at a particular concentration of the test agent using the formula:
% Inhibition=(1−Mean # of colonies [Test]/Mean # of colonies [Control]×100.

In experiment [2] the test system is NALM-6 human B-lineage acute lymphoblastic leukemia cells. As to the kind of experiment: MTT cytotoxicity assay, NALM-6. Format: cell-based. Particulars: NALM-6 (leukemia, ALL), 24-36 hours, read-out: IC50 [MTT]. As to the method:
as §1
Human glioblastoma cells U373 (brain cancer), human B-lineage acute lymphoblastic leukemia cells NALM-6, and human breast cancer cells BT-20 were obtained from American Type Culture Collection (Rockville, Md.) and maintained as a continuous cell line in Dulbecco's modified Eagles's medium supplemented with 10% fetal bovine serum and antibiotics.
The cells were incubated with the various compounds for 24-36 hours at 37° C. in a humidified 5% CO2 atmosphere. To each well, 10 μl of MTT (0.5 mg/ml final concentration) was added and the plates were incubated at 37° C. for 4 hours to allow MTT to form formazan crystals by reacting with metabolically active cells. The fonnazan crystals were solubilized overnight at 37° C. in a solution containing 10% SDS in 0.01 M HCl. The absorbance of each well was measured in a microplate reader (Labsystems) at 540 nm and a reference wavelength of 690 nm. To translate the OD540 values into the number of live cells in each well, the OD540 values were compared to those on standard OD540-versus-cell number curves generated for each cell line. The percent survival was calculated using the formula: [formula]
The IC50 values were calculated by non-linear regression analysis.

The subject of a further experiment is leukemia NALM-6 cells. As to the kind of experiment: Mitochondrial transmembrane potential assay (DiIC1(5) staining). In kind it is cell-based, human. As to conditions: 2.5 nM, 5 nM or 10 nM, 72 hours. As to the method:
FIG. 2 are graphs showing the effect of synthetic phorboxazole A and phorboxazole A derivatives on the mitochondrial transmembrane potentials of leukemia NALM-6 cells.
Cells were incubated with 2.5 nM, 5 nM or 10 nM of phorboxazole A, 33-O-methyl-phorboxazole A or 45,46-dehydrobromo-phorboxazole A for 72 hours, stained with DiICl (5) to assess the mitochondrial membrane potential (Δψm) and then analyzed with a cell sorter equipped with a HeNe laser.

One may read the IC50 as the concentration that inhibits the measured activity by half. For orientation: inhibition means the share of the control response that was lost under treatment. Turning to `C=C1C[C@@H]2C[C@@H]3C[C@@H](O)C[C@@H](O3)c3coc(n3)/C=C/C[C@H]3O[C@@H](/C(C)=C/c4coc(C[C@]5(O)C[C@H](OC)C[C@H]([C@H](O)/C=C(C)/C=C/[C@@H](C/C=C/Br)OC)O5)n4)[C@H](C)[C@@H](OC(=O)/C=C\C[C@@H](C1)O2)[C@H]3C` [Compound 1, Phorboxazole A], the IC50 with DU-145 (prostate cancer) came out at 15 nM; in experiment [2], 1.7 nM. Further, the “Mean Number Colonies/10^4 cells” value in experiment [1] (10 nM) is 378; in experiment [1] (100 nM), 0. In experiment [1] (Homo sapiens, U373 MG, 168 h, 10 nM, read-out: Inhibition of clonogenic growth), the inhibition at 0.01 µM came to 42.4%. The inhibition at 0.1 µM in experiment [1] (Homo sapiens, U373 MG, 168 h, 100 nM, read-out: Inhibition of clonogenic growth) is over 99.9%. The “Depolarized mitochondria (mitochondrial membrane potential)” value in the experiment with leukemia NALM-6 cells is “progressive increase in depolarized mitochondria”.
